Test results: US20040082665A1, “Method for treating stress or tension” (priority 2001, published 2004)

Tests used:
patients [1] = test: Randomised placebo-controlled double-blind study; ability to tolerate stress by Visual Analogue Scale (VAS); format: in vivo; conditions: tablet
Experimental: The effects of deramciclane were studied in a randomised placebo-controlled double-blind study. The subjects were randomly assigned to four parallel groups to receive one tablet twice daily (b.i.d) of a placebo, 5 mg (=10 mg/day), 15 mg (=30 mg/day), or 30 mg (=60 mg/day) deramciclane.
The efficacy of deramciclane on the ability to tolerate stress was analysed by the Visual Analogue Scale (VAS).

patients [2] = test: Randomised placebo-controlled double-blind parallel group 8-week study of tension; format: in vivo; conditions: after 8 weeks of treatment; for patients with tension scale number at least 4: placebo 48% at baseline, 12% after 8 weeks; for patients with moderate/severe or very severe other tension: present in all patients at baseline, placebo 43%; for patients with moderate/severe or very severe muscular tension: placebo 82% at baseline, 38% after 8 weeks
Text: The efficacy and safety of deramciclane was studied in the treatment of tension as compared to placebo. A randomised plasebo-controlled double-blind parallel group 8-week study design was used.
Patients were asked if they had muscular tension (twitchings, stiffness, myoclonic jerks, grinding of teeth, unsteady voice or increased muscular tone) or other tension (feelings of tension, fatigability, startle response, moving to tears easily, trembling, feelings of restlessness or inability to relax). This tension was related to be not present, mild, moderate, severe or very severe.
In addition, patients' tension was also rated with the tension scale 1-6:
2—occasional feelings of edginess and ill defined discomfort
4—continuous feelings of inner tension
6—unrelated dread or anguish

In the case of CN(C)CCO[C@]1(c2ccccc2)C[C@H]2CC[C@]1(C)C2(C)C [deramciclane, (1R,2S,4R)-(−)-2-phenyl 2-(dimethylaminoethoxy)-1,7,7-trimethyl-bicyclo[2.2.1]heptane], the “ability to tolerate stress better than in patients receiving placebo (VAS)” value (“ability to tolerate stress better than” for short) (patients [1]; deramciclane 5 mg b.i.d (=10 mg/day)) is reported as 29%, the “ability to tolerate stress better than” value (patients [1]; deramciclane 15 mg b.i.d (=30 mg/day)) is reported as 54% and the “ability to tolerate stress better than” value (patients [1]; deramciclane 30 mg b.i.d. (=60 mg/day)) is reported as 43%. For the same molecule, the “patients with tension scale number at least 4” value (patients [2]; 15 mg bid deramciclane, baseline 35%) was 5%, the “patients with moderate/severe or very severe other tension” value (patients [2]; 15 mg bid deramciclane) was 25% and the “patients with moderate/severe or very severe muscular tension” value (patients [2]; 15 mg deramciclane bid, baseline 61%) was 18%. For the same molecule, the “patients with tension scale number at least 4” value (patients [2]; 30 mg bid deramciclane, baseline 47%) was 11%, the “patients with moderate/severe or very severe other tension” value (patients [2]; 30 mg bid deramciclane) was 24% and the “patients with moderate/severe or very severe muscular tension” value (patients [2]; baseline 68%) was 15%.
